# Assay results published in ChEMBL document CHEMBL1201862, “PubChem BioAssay data set” (2004).
#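 Cultured in 96-well plates, cells were exposed to test compound for 48 hours across five concentrations. GI50: concentration for 50% inhibition of growth.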 Activity calls are given as the source filed them. Rule as the data show it: active = GI50 up to about 1.1 µM and inactive = higher.
# Key:
# Experiment in all cases: DTP human tumour cell line panel, 48 h
# OVCAR-3 = system: OVCAR-3
# Malme-3M = system: Malme-3M
# DMS-114 = system: DMS-114
# RPMI-8226 = system: RPMI-8226
# LOX IMVI = system: LOX IMVI
# HL-60 = system: HL-60
# U-251 = system: U-251
# SK-MEL-5 = system: SK-MEL-5
# NCI-H23 = system: NCI-H23
# CAKI-1 = system: CAKI-1
# HOP-62 = system: HOP-62
# NCI-H460 = system: NCI-H460
# CCRF-CEM = system: CCRF-CEM
# UACC-257 = system: UACC-257
# OVCAR-5 = system: OVCAR-5
# DLD-1 = system: DLD-1
# HCT-15 = system: HCT-15
# M14 = system: M14
# HT-29 = system: HT-29
# A549 = system: A549
# M19-MEL = system: M19-MEL
# IGROV-1 = system: IGROV-1
# HOP-18 = system: HOP-18
# SK-MEL-2 = system: SK-MEL-2
# SN12C = system: SN12C
# SK-OV-3 = system: SK-OV-3
# HOP-92 = system: HOP-92
# UACC-62 = system: UACC-62
# SW-620 = system: SW-620
# NCI-H522 = system: NCI-H522
# UO-31 = system: UO-31
# 786-0 = system: 786-0
# ACHN = system: ACHN
# KM-20L2 = system: KM-20L2
# RXF 393 = system: RXF 393
# SK-MEL-28 = system: SK-MEL-28
# SNB-78 = system: SNB-78
# LXFL 529 = system: LXFL 529
# OVCAR-8 = system: OVCAR-8
# K562 = system: K562
# MOLT-4 = system: MOLT-4
# SF-295 = system: SF-295
# DMS-273 = system: DMS-273
# A498 = system: A498
# SNB-75 = system: SNB-75
# COLO 205 = system: COLO 205
# NCI-H226 = system: NCI-H226
# SF-539 = system: SF-539
# TK-10 = system: TK-10
# OVCAR-4 = system: OVCAR-4
# KM12 = system: KM12
# HCT-116 = system: HCT-116
# SF-268 = system: SF-268
# PC-3 = system: PC-3
# BT-549 = system: BT-549
# MDA-N = system: MDA-N
# EKVX = system: EKVX
# NCI/ADR-RES = system: NCI/ADR-RES
# Hs-578T = system: Hs-578T
# MDA-MB-435 = system: MDA-MB-435
# MCF7 = system: MCF7
# SNB-19 = system: SNB-19
# T47D = system: T47D
# HCC 2998 = system: HCC 2998
# MDA-MB-231 = system: MDA-MB-231
# SR = system: SR
# DU-145 = system: DU-145
structure (smiles),measurement,setting,value
O=C(NCCNCCO)N/N=C/c1cccc([N+](=O)[O-])c1,GI50,OVCAR-3,> 100 µM (inactive)
same,GI50,Malme-3M,> 100 µM (inactive)
same,GI50,DMS-114,> 100 µM (inactive)
same,GI50,RPMI-8226,> 100 µM (inactive)
same,GI50,LOX IMVI,> 100 µM (inactive)
same,GI50,HL-60,> 100 µM (inactive)
same,GI50,U-251,> 100 µM (inactive)
same,GI50,SK-MEL-5,> 100 µM (inactive)
same,GI50,NCI-H23,> 100 µM (inactive)
same,GI50,CAKI-1,> 100 µM (inactive)
same,GI50,HOP-62,> 100 µM (inactive)
same,GI50,NCI-H460,> 100 µM (inactive)
same,GI50,CCRF-CEM,> 100 µM (inactive)
same,GI50,UACC-257,> 100 µM (inactive)
same,GI50,OVCAR-5,> 100 µM (inactive)
same,GI50,DLD-1,> 100 µM (inactive)
same,GI50,HCT-15,> 100 µM
same,GI50,M14,> 100 µM (inactive)
same,GI50,HT-29,> 100 µM (inactive)
same,GI50,A549,> 100 µM (inactive)
same,GI50,M19-MEL,> 100 µM (inactive)
same,GI50,IGROV-1,> 100 µM (inactive)
same,GI50,HOP-18,> 100 µM (inactive)
same,GI50,SK-MEL-2,> 100 µM (inactive)
same,GI50,SN12C,> 100 µM (inactive)
same,GI50,SK-OV-3,> 100 µM (inactive)
same,GI50,HOP-92,> 100 µM (inactive)
same,GI50,UACC-62,> 100 µM (inactive)
same,GI50,SW-620,> 100 µM (inactive)
same,GI50,NCI-H522,> 100 µM (inactive)
same,GI50,UO-31,> 100 µM (inactive)
same,GI50,786-0,> 100 µM (inactive)
same,GI50,ACHN,> 100 µM (inactive)
same,GI50,KM-20L2,> 100 µM (inactive)
same,GI50,RXF 393,> 100 µM (inactive)
same,GI50,SK-MEL-28,> 100 µM (inactive)
same,GI50,SNB-78,> 100 µM (inactive)
same,GI50,LXFL 529,> 100 µM (inactive)
same,GI50,OVCAR-8,> 100 µM (inactive)
same,GI50,K562,> 100 µM (inactive)
same,GI50,MOLT-4,> 100 µM (inactive)
same,GI50,SF-295,> 100 µM (inactive)
same,GI50,DMS-273,> 100 µM (inactive)
same,GI50,A498,> 100 µM (inactive)
same,GI50,SNB-75,> 100 µM (inactive)
same,GI50,COLO 205,> 100 µM (inactive)
same,GI50,NCI-H226,> 100 µM (inactive)
same,GI50,SF-539,> 100 µM (inactive)
same,GI50,TK-10,> 100 µM (inactive)
same,GI50,OVCAR-4,> 100 µM (inactive)
same,GI50,KM12,> 100 µM (inactive)
same,GI50,HCT-116,> 100 µM (inactive)
same,GI50,SF-268,> 100 µM (inactive)
CC1OC(n2cc(F)c(=O)[nH]c2=O)CCC1O (centres undefined),GI50,PC-3,> 100 µM (inactive)
same,GI50,OVCAR-3,> 100 µM (inactive)
same,GI50,Malme-3M,99.8 µM (inactive)
same,GI50,RPMI-8226,56.1 µM (inactive)
same,GI50,LOX IMVI,> 100 µM (inactive)
same,GI50,BT-549,> 100 µM (inactive)
same,GI50,HL-60,> 79.4 µM (inactive)
same,GI50,U-251,> 100 µM (inactive)
same,GI50,SK-MEL-5,> 56.2 µM (inactive)
same,GI50,NCI-H23,> 100 µM (inactive)
same,GI50,CAKI-1,> 91.6 µM (inactive)
same,GI50,HOP-62,> 87.1 µM (inactive)
same,GI50,NCI-H460,50.8 µM (inactive)
same,GI50,CCRF-CEM,> 100 µM (inactive)
same,GI50,UACC-257,> 100 µM (inactive)
same,GI50,OVCAR-5,> 100 µM (inactive)
same,GI50,MDA-N,91.2 µM (inactive)
same,GI50,EKVX,> 100 µM (inactive)
same,GI50,DLD-1,> 100 µM (inactive)
same,GI50,HCT-15,> 94.4 µM
same,GI50,M14,> 91.4 µM (inactive)
same,GI50,HT-29,98.9 µM (inactive)
same,GI50,A549,67.5 µM (inactive)
same,GI50,M19-MEL,> 100 µM (inactive)
same,GI50,IGROV-1,> 100 µM (inactive)
same,GI50,NCI/ADR-RES,> 100 µM (inactive)
same,GI50,HOP-18,67.5 µM (inactive)
same,GI50,SK-MEL-2,> 100 µM (inactive)
same,GI50,SN12C,> 100 µM (inactive)
same,GI50,Hs-578T,99.1 µM (inactive)
same,GI50,SK-OV-3,> 100 µM (inactive)
same,GI50,HOP-92,> 100 µM (inactive)
same,GI50,MDA-MB-435,> 100 µM (inactive)
same,GI50,UACC-62,> 100 µM (inactive)
same,GI50,MCF7,30.1 µM (inactive)
same,GI50,SW-620,> 100 µM (inactive)
same,GI50,NCI-H522,> 95.1 µM (inactive)
same,GI50,UO-31,85.3 µM (inactive)
same,GI50,786-0,> 100 µM (inactive)
same,GI50,ACHN,> 95.9 µM (inactive)
same,GI50,KM-20L2,95.1 µM (inactive)
same,GI50,SNB-19,> 100 µM (inactive)
same,GI50,RXF 393,> 79.6 µM (inactive)
same,GI50,SK-MEL-28,> 100 µM (inactive)
same,GI50,SNB-78,> 100 µM (inactive)
same,GI50,LXFL 529,> 100 µM (inactive)
same,GI50,OVCAR-8,> 85.3 µM (inactive)
same,GI50,T47D,> 100 µM (inactive)
same,GI50,K562,> 100 µM (inactive)
same,GI50,MOLT-4,> 100 µM (inactive)
same,GI50,SF-295,> 84.5 µM (inactive)
same,GI50,DMS-273,> 100 µM (inactive)
same,GI50,HCC 2998,30.1 µM (inactive)
same,GI50,A498,> 66.5 µM (inactive)
same,GI50,SNB-75,> 72.9 µM (inactive)
same,GI50,COLO 205,> 87.1 µM (inactive)
same,GI50,NCI-H226,> 100 µM (inactive)
same,GI50,SF-539,29.2 µM (inactive)
same,GI50,TK-10,> 100 µM (inactive)
same,GI50,MDA-MB-231,> 100 µM (inactive)
same,GI50,SR,> 94 µM (inactive)
same,GI50,DU-145,> 77.6 µM (inactive)
same,GI50,OVCAR-4,> 100 µM (inactive)
same,GI50,KM12,> 96.2 µM (inactive)
same,GI50,HCT-116,78 µM (inactive)
same,GI50,SF-268,> 100 µM (inactive)
